Target: T1, INa (SCN5a) (Homo sapiens, UniProt Q14524)
T1 construct: endogenous in cells; host or cells: freshly isolated human atrial myocytes (bypass-surgery patients)
Assay: Whole-cell patch clamp in human atrial myocytes: INa
Assay type: cell-based
Conditions: n = 3 cells
Experimental: The blocking profile of the compounds of the invention is determined on the following channels of the human atrial myocytes: INa, Ito, Isus and IK1 channel currents.
Human atrial myocytes: Myocytes were prepared from specimens with grossly normal anatomical aspect, excised from hearts of patients with normal P-wave electrocardiogram, undergoing bypass surgery. Human atrial sample were obtained following approval by the ethical committee. Atrial tissue samples were quickly immersed in a cardioplegic solution (in mM: 50 KH2PO4, 8 MgSO4, 10 NaHCO3, 5 adenosine, 25 taurine, 140 glucose, and 100 mannitol, titrated to a pH of 7.4 and bubbled with 100% O2 at 0-4° C.) and rapidly delivered to the laboratory. The tissue was then minced onto 0.5-1 mm^2 chunks within 30 min after the excision procedure and transferred to a 50 ml conical tube containing wash solution deprived of Ca^2+ (in mM: 137 NaCl, KH2PO4, 1 MgSO4, 10 taurine, 10 glucose, 5 HEPES, and 100 μmol/L (µM) EGTA; pH=7.4, room temperature 22-24° C.). […]
Experiments were performed at room temperature (20-25° C.) for INa and at 32-34° C. for Ito, Isus, IK1. Currents were measured using the whole-cell variant of the patch clamp method. […]
Raw data and mean ±SEM are given. […] This is measured as current reduction after a steady-state effect has been reached in the presence of drug relative to current amplitude before drug was introduced (control). […]

T1 sequence (Q14524 whole entry): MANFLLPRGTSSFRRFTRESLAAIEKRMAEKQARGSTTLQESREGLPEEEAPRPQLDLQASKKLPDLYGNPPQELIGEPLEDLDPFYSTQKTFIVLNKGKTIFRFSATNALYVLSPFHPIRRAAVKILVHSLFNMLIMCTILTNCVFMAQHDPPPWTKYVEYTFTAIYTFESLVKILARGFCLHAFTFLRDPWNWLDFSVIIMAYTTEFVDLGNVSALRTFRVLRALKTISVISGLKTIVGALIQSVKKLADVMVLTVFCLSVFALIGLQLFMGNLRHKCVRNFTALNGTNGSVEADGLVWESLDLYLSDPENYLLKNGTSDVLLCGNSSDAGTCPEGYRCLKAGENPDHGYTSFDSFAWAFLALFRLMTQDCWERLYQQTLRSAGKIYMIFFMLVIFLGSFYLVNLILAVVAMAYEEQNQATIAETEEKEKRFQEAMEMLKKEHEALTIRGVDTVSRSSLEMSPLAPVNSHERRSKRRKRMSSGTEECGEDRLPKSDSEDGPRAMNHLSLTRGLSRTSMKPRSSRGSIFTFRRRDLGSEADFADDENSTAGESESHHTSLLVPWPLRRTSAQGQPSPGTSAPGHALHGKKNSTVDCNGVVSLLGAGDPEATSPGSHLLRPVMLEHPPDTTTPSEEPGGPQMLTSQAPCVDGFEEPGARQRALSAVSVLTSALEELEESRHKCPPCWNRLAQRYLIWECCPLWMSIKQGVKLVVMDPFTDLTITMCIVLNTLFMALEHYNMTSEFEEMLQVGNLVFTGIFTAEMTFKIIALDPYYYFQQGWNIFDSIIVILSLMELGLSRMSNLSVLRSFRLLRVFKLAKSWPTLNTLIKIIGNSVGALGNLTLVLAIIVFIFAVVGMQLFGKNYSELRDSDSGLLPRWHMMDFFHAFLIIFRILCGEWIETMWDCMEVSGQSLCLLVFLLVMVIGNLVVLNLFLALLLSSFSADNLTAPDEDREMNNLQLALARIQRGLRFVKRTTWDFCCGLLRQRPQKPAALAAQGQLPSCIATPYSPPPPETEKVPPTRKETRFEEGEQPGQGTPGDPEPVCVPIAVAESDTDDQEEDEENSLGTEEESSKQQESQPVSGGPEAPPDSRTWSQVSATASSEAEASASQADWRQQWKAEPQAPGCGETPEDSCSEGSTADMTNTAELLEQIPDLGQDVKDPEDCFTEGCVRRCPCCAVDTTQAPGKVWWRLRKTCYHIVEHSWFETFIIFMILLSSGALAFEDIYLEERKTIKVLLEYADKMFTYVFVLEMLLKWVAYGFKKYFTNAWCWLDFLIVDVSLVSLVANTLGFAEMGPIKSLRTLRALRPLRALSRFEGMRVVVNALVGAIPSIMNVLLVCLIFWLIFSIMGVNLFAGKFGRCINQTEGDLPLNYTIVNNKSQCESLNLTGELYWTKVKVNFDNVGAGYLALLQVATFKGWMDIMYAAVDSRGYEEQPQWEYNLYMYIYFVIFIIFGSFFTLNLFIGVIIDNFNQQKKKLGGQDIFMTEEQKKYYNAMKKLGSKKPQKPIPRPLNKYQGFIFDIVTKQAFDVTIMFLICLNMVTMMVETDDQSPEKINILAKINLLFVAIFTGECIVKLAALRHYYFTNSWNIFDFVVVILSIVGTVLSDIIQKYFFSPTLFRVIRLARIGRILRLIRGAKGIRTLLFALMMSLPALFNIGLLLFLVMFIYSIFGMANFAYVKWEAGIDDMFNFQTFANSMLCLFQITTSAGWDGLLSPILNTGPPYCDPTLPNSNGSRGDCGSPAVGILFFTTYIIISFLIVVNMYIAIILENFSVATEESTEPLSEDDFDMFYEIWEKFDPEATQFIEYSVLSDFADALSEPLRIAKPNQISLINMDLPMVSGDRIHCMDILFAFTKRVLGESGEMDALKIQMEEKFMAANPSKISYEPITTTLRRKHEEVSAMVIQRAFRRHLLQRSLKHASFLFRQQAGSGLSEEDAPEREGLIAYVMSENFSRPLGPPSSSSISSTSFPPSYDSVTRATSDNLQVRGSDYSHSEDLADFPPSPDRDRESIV

## COc1ccccc1Nc1nc(C)c(C(=O)N[C@H]2CCC[C@@H]2OCc2ccccc2)s1 [Compound 68, 2-(2-methoxy-phenylamino)-4-methyl-thiazole-5-carboxylic acid (1S,2S)-2-(benzyloxycyclopent-1-yl) amide]
  Block at 10 μM in %: INa (SCN5a): 0 ± 0.5%
